{"source": "paper PMC7495481", "about": "“Sequence specificity analysis of the SETD2 protein lysine methyltransferase and discovery of a SETD2 super-substrate” (Communications Biology, 2020)", "type_in_all_cases": "biochemical", "key": {"SETD2 [1]": {"target": "T1, SETD2 (Homo sapiens, UniProt Q9BYW2)", "T1 construct": "SETD2 catalytic SET domain (amino acids 1347–1711, UniProt No: Q9BYW2); made in house; host or cells: E. coli", "T1 sequence (Q9BYW2 1347-1711)": "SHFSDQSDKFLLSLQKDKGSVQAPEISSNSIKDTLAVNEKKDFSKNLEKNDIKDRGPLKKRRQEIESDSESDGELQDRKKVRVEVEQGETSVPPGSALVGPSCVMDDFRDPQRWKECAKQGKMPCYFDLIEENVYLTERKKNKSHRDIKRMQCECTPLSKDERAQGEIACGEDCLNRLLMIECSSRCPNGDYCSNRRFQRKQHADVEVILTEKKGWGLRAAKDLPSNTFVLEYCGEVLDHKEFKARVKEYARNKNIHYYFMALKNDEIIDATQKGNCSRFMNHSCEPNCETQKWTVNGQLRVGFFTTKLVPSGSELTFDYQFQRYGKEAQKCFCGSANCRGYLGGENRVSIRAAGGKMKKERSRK", "assay": "Single turnover time course of ssK36 methylation", "conditions": "5 µM substrate, 6 µM enzyme; average ± SEM", "description": "The H3K36 (27–43) and the H3K36M (27–43) peptides were purchased from Intavis AG (Köln, Germany) and the ssK36 peptide (29–43) and the ssK36M peptide (29–43) were from Innovative Peptide Solutions (Berlin, Germany). If not indicated otherwise, peptide methylation reactions were performed using 20 µM peptide and 6 µM SETD2 in 20 µl methylation buffer supplemented with 0.76 µM radioactive labeled AdoMet (PerkinElmer) for 3 h at 25 °C. The reactions were halted by the addition of Tricine-SDS-PAGE loading buffer and incubation for 5 min at 95 °C. Afterward the samples were separated by Tricine-SDS-PAGE, which was followed by the incubation of the gel in amplify NAMP100V (GE Healthcare) for 45 min on a shaker and drying of the gel for 2 h at 55 °C in vacuum. The signals of the transferred radioactive labeled methyl groups were detected by autoradiography using a hyperfilm^TM high performance autoradiography film (GE Healthcare) at −80 °C in the dark. The film was developed with an Optimax Typ TR machine after different exposure times.\nTime courses of ssK36 methylation were analyzed by fitting to an exponential reaction progress curve (Eq. 1). Initial rates of single turnover reactions were determined using the first derivative of eq. 1 at t = 0. Signal=BL+F×1−exp^−kst×t […]"}, "SETD2 [2]": {"target": "T1, SETD2", "assay": "Time courses of methylation of ssK36 and H3K36 compared (initial slopes)", "conditions": "20 µM substrate, 6 µM enzyme; two experiments, average ± SEM", "description": "Fig. 2 Design of an optimized SETD2 peptide substrate and analysis of its methylation. a Variants of the H3K36 (29–43) peptide containing up to five mutations (Supplementary Table 1) were synthesized on a cellulose membrane and methylated by SETD2. The signal of the transferred radioactive methyl groups was detected by autoradiography. Spots A1 and B15 contain the H3K36 sequence, A2 and B16 the H3K36A peptide. Two films with different exposure times are shown to visualize weaker methylated spots as well. b Comparison of the methylation of purified super-substrate (ssK36) and the H3K36 peptides. […] Methylation reactions were conducted using 20 µM peptide and 6 µM enzyme. […]\nThe H3K36 (27–43) and the H3K36M (27–43) peptides were purchased from Intavis AG (Köln, Germany) and the ssK36 peptide (29–43) and the ssK36M peptide (29–43) were from Innovative Peptide Solutions (Berlin, Germany). […] The signals of the transferred radioactive labeled methyl groups were detected by autoradiography using a hyperfilm^TM high performance autoradiography film (GE Healthcare) at −80 °C in the dark. […]\nTime courses of ssK36 methylation were analyzed by fitting to an exponential reaction progress curve (Eq. 1). Initial rates of single turnover reactions were determined using the first derivative of eq. […]"}, "SETD2 [3]": {"target": "T1, SETD2", "assay": "Peptide SPOT array methylation of H3K36 (29–43) variants, super-substrate design (Fig. 2a)", "description": "Based on these observations, we aimed to explore, if better substrates than H3K36 can be designed for SETD2. We synthesized peptide SPOT arrays including H3K36 (29–43) as a positive control and the H3K36A mutant as a negative control, in which up to 5 combined mutations were systematically introduced that converted the original H3K36 residues into residues that are more favored (Fig. 2a and Supplementary Table 1). This peptide array was methylated by SETD2 as described above and the methylation signal was captured by autoradiography.\nFig. 2 Design of an optimized SETD2 peptide substrate and analysis of its methylation. a Variants of the H3K36 (29–43) peptide containing up to five mutations (Supplementary Table 1) were synthesized on a cellulose membrane and methylated by SETD2. The signal of the transferred radioactive methyl groups was detected by autoradiography. Spots A1 and B15 contain the H3K36 sequence, A2 and B16 the H3K36A peptide. Two films with different exposure times are shown to visualize weaker methylated spots as well. b Comparison of the methylation of purified super-substrate (ssK36) and the H3K36 peptides. […] Methylation reactions were conducted using 20 µM peptide and 6 µM enzyme. The lower panels display autoradiography films after different exposure times allowing to compare the methylation levels of the different samples. For comparison, different dilutions of the methylated ssK36 were loaded as indicated. c Time course of ssK36 peptide methylation determined under single turnover conditions using 5 µM substrate and 6 µM enzyme. […] The gels with the radioactive ssK36 (5 µl loaded per well) and H3K36 peptides (20 µl loaded per well) were exposed together to the same x-ray film. […] An enlargement of the H3K36 data with adjusted y-axis scale is shown in Supplementary Fig. 3d.\nPeptide arrays containing fifteen amino acid long peptides were synthesized using the SPOT synthesis method[48] with an Autospot peptide array synthesizer (Intavis AG, Köln, Germany). After synthesis, the obtained membranes were pre-incubated in methylation buffer (20 mM Tris/HCl pH 9, 0.01% Triton X-100, 10 mM DTT, 1.5 mM MgCl2) for 5 min on a shaker. Thereafter, the membranes were incubated in methylation buffer supplemented with 0.76 µM radioactively labeled AdoMet (PerkinElmer) and 3–6 µM SETD2 enzyme for 60 min on a shaker. After methylation, the membranes were washed 5 times for 5 min in wash buffer (100 mM NH4HCO3, 1% SDS) and incubated in amplify NAMP100V (GE Healthcare) for 5 min. This was followed by the exposure of the membranes to a hyperfilm^TM high performance autoradiography (GE Healthcare) film at −80 °C in the dark. The films were developed with an Optimax Typ TR machine after different exposue times. For quantification the signal intensities were measured with the Phoretix^TM software and analyzed with Microsoft Excel."}}}
{"sequence": "APRFGGVKRPNRYRP [ssK36, super-substrate peptide with four amino acid exchanges (A31R, T32F, K37R, H39N)]", "values": [{"measurement": "single turnover methylation rate constant kst", "setting": "SETD2 [1]", "value": "4.07 ± 0.39", "unit": "h⁻¹"}, {"measurement": "fold higher initial slope for ssK36 methylation vs H3K36", "setting": "SETD2 [2]", "value": "290 ± 70", "unit": "fold"}, {"measurement": "peptide array methylation of H3K36 variants (in words)", "setting": "SETD2 [3]; SPOT array, 0.76 µM radioactive AdoMet, 3–6 µM SETD2, 60 min, pH 9, autoradiography", "value": "one of the most strongly methylated peptides"}, {"measurement": "fold stronger methylation of ssK36 than H3K36", "setting": "SETD2 [3]; densitometric analysis of 5 pairs of H3K36 and ssK36 spots on independent arrays, ± SD", "value": "70 ± 10", "unit": "fold"}]}
